Patent US6492578B1, “Expression of herbicide tolerance genes in plant plastids” (Calgene LLC, priority 1998, dated 2002)
Like-named read-outs stand apart in the source and are kept apart here.

Columns and labels:
Nb2 cell line = test: Nb2 cell proliferation bioactivity assay (MTS); assay type: cell-based; conditions: pH adjusted and centrifuged extract of pMON38794 tobacco, 48 hrs, MTS (FIG. 5)
Procedure: Bioactivity of the pH adjusted and centrifuged extract was tested using cells from an Nb2 cell line. These cells proliferate in the presence of growth hormone and other […] type compounds. The assay involves putting various concentrations of growth hormone-containing extract into a 96 well plate. Then a constant amount of cells are added to each well. The plate is incubated for 48 hrs and then a reagent called MTS is added. Metabolizing cells take up the MTS and convert it to a blue colored substance. The more cells there are the more blue color in the well. The blue color is measured using a spectrophotometer. The number of cells should be proportional to the concentration of growth hormone in the media. At some high concentration one expects that the cells will become saturated with growth hormone and that the dose response will level off. At very low hGH concentrations essentially no enhanced growth is seen.

[1] = tested on: 5177 transformed tobacco lines and control lines; test: Norflurazon resistance analysis (watering with Norflurazon solution); assay type: in vivo; conditions: 3 μM Norflurazon solution
Procedure: An experiment was set up to determine the efficacy of the Crt I trait with respect to resistance to the herbicide Norflurazon. Three 5177 transformed lines, 74-1B-P, 74-2-A, and 74-7-C and three control lines were planted. Plants were grown for seven weeks and then watered with a 3 μM Norflurazon solution. Plants negative for the presence of the crtI plastid-borne gene were bleached by Norflurazon treatment, positive plants stayed green and continued to grow.

[2] = tested on: Homoplasmic tobacco plants of the line 38773-6; test: Whole plant glyphosate spray test (track sprayer); assay type: in vivo
Procedure: (§1) Homoplasmic tobacco plants of the line 38773-6 are sprayed with glyphosate using a track sprayer at concentrations corresponding to 0 oz/acre, 16 oz/acre, 32 oz/acre and 64 oz/acre to test for whole plant tolerance. Plant height was measured before and after s praying with glyphosate. The vegetative injury data was collected two weeks after spraying, while the reproductive injury data was collected at plant maturity.
(§2) Tolerance is characterized by the continued growth and greening of tissues sprayed with glyphosate. However, as the concentration of glyphosate applied increased, there was a corresponding increase in the level of vegetative injury.

[3] = tested on: Wild type tobacco (nontransformed control plants); test: Whole plant glyphosate spray test (track sprayer); assay type: in vivo
Procedure: as §1, §2

[4] = tested on: transplastomic (and nuclear pMON10154) tobacco lines expressing EPSPS; test: Glyphosate spray tolerance of other lines expressing EPSPS; assay type: in vivo
Procedure: as §1
(§3) In addition, other transplastomic lines were analyzed for tolerance to spraying with various levels of glyphosate as described above. Specific activity is measured as the amount of exogenously added Phosphoenol pyruvate (PEP) converted to […] per unit protein in the plant extract. Addition of glyphosate tests sensitivity of the EPSPS enzyme to glyphosate.

EPSPS enzyme [5] = molecular target: T1, EPSPS enzyme (Agrobacterium sp., UniProt Q9R4E4); assay type: biochemical
T1 construct: from tissue; host or cells: extracts of wild-type and transplastomic tobacco plants
Procedure: (§4) Methods for the analysis of EPSPS enzyme activity are described in Padgette et al. (J. Biol. Chem. (1988)263:1798-1802 and Arch. Biochem. Biophys. (1987)258:564-573) and Wibbenmeyer et al. (Biochem. Biophys. Res. Commun. (1988)153:760-766).
as §3

EPSPS enzyme [6] = assay type: biochemical
Procedure: as §4, §3

[7] = tested on: transplastomic tobacco lines containing EPSPS genes; test: In vitro glyphosate selection of shoots from plastid transformation with EPSPS constructs; assay type: cell-based
Procedure: (§5) A transplastomic tobacco line homoplasmic for the construct pMON38773 was tested in vitro to determine the highest level of glyphosate tolerance. Explant tissue was prepared from leaf pieces of nontransgenic wild type tobacco control, Havanna, plants and the homoplasmic tobacco line 38773-6 and cultured for regeneration of shoots on TSO medium (described above) supplemented with glyphosate levels of 50 μM, 75 μM, 100 μM, 150 μM and 200 μM. The number of explants producing shoots was determined at 3 weeks and 6 weeks after explant preparation and culturing on glyphosate containing medium.
Additional transplastomic lines were tested in vitro for glyphosate tolerance as bed above.
The numbers in parentheses are the number of shoots resistant to selection at 1 mM glyphosate.

[8] = tested on: homoplasmic tobacco line 38773-6; test: In vitro glyphosate tolerance: shoot regeneration from leaf explants on TSO medium with glyphosate; assay type: cell-based, Nicotiana tabacum cv. Havana
Procedure: as §5

[9] = tested on: nontransgenic wild type tobacco control, Havanna; test: as above; assay type: cell-based, Nicotiana tabacum cv. Havana; conditions: for Number Regenerating 3 Weeks / Number Regenerating 6 Weeks: 10 explants
Procedure: as §5

[10] = line pMON10154 (nuclear), glyphosate spray
[11] = line pMON30123, glyphosate spray
[12] = line pMON30130, glyphosate spray
[13] = line pMON38773, glyphosate spray
[14] = line pMON38798, glyphosate spray
[15] = line pMON45201, glyphosate spray
[16] = line 38773-6, glyphosate 50 μM, 8 explants
[17] = line 38773-6, glyphosate 75 μM, 18 explants
[18] = line 38773-6, glyphosate 100 μM, 17 explants
[19] = line 38773-6, glyphosate 150 μM, 18 explants
[20] = line 38773-6, glyphosate 200 μM, 16 explants

T1 sequence (Q9R4E4 whole entry): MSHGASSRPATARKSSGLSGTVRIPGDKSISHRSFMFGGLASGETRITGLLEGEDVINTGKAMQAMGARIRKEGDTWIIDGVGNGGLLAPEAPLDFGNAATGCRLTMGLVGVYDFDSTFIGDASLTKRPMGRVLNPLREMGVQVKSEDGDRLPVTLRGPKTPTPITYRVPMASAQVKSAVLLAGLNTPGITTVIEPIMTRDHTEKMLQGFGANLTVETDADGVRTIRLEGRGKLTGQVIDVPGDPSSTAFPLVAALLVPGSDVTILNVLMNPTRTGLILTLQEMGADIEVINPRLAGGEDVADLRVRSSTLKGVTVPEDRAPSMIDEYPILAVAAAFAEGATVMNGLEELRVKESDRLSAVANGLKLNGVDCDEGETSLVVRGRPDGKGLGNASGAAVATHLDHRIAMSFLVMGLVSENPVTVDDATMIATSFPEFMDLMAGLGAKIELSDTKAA

For “hGH: Human Growth Hormone expressed from tobacco plastids (pMON38794), tested as pH adjusted and centrifuged leaf extract”, the “bioactivity: absorbance vs hGH concentration” value (Nb2 cell line) was “sigmoidal shape”.
CNc1cnn(-c2cccc(C(F)(F)F)c2)c(=O)c1Cl [Norflurazon] was tested, and the Norflurazon resistance ([1]; control plants) was “susceptible”, the “Result (Norflurazon resistance)” value ([1]; line 74-1B-P (homoplasmic 5177)) was “Resistant” and the “Result (Norflurazon resistance)” value ([1]; line 74-2-A (homoplasmic 5177)) was “Resistant”. The “Result (Norflurazon resistance)” value ([1]; line 74-7-C (homoplasmic 5177)) was “Resistant”, the “Result (Norflurazon resistance)” value ([1]; line 75-5D-A (Control)) was “Susceptible” and the “Result (Norflurazon resistance)” value ([1]; line 2560A Xanthi (Control)) was “Susceptible”. The “Result (Norflurazon resistance)” value ([1]; line Xanthi (Control), plants grown seven weeks) was “Susceptible” and the Norflurazon resistance ([1]; three homoplasmic 5177 tobacco lines) was “resistant”.
O=C(O)CNCP(=O)(O)O [glyphosate, N-phosphonomethylglycine] was tested, and the “glyphosate concentration tolerated (vegetative tissue injury)” value ([2]; initial results, homoplasmic tobacco lines sprayed) was 16 oz/acre, the “glyphosate rate with a good level of tolerance” value ([2]; transplastomic lines, spray) was 32 oz/acre and the “Reproductive tolerance (oz/acre)” value ([3]; Wild-type, glyphosate spray) was 0 oz/acre. For the same compound, the “Vegetative tolerance (oz/acre)” value ([3]; Wild-type, glyphosate spray) was 0 oz/acre, the “susceptibility to sprayed glyphosate” value ([3]; nontransformed control plants, glyphosate concentrations as low as 16 oz/acre) was “highly susceptible” and the “Reproductive tolerance (oz/acre)” value [4, 10] was 64 oz/acre. The “Vegetative tolerance (oz/acre)” value [4, 10] was 128 oz/acre, the “Reproductive tolerance (oz/acre)” value [4, 11] was 0 oz/acre and the “Vegetative tolerance (oz/acre)” value [4, 11] was 0 oz/acre. The “Reproductive tolerance (oz/acre)” value [4, 12] was 0 oz/acre, the “Vegetative tolerance (oz/acre)” value [4, 12] was 0 oz/acre and the “Reproductive tolerance (oz/acre)” value [4, 13] was 16 oz/acre. For the same compound, the “Vegetative tolerance (oz/acre)” value [4, 13] was 32 oz/acre, the “Reproductive tolerance (oz/acre)” value [4, 14] was 16 oz/acre and the “Vegetative tolerance (oz/acre)” value [4, 14] was 32 oz/acre. For the same compound, the “Reproductive tolerance (oz/acre)” value [4, 15] was 32 oz/acre, the “Vegetative tolerance (oz/acre)” value [4, 15] was 32 oz/acre and the glyphosate level tolerated ([4]; subsequent experiments with additional transformed transplastomic lines) was 64 oz/acre. For the same compound, the “SPECIFIC ACTIVITY (nmol/min/mg) +1 mM gly” value (EPSPS enzyme [5]; line pMON10154 (nuclear CP4 control) extract, No gly: 19.0) was 18.4 nmol/min/mg, the “SPECIFIC ACTIVITY (nmol/min/mg) +1 mM gly” value (EPSPS enzyme [5]; line pMON38773 extract, No gly: 16.7) was 6.7 nmol/min/mg and the “SPECIFIC ACTIVITY (nmol/min/mg) +1 mM gly” value (EPSPS enzyme [6]; Wild-type plant extract, No gly: 3.4) was 0 nmol/min/mg. For the same compound, the “SPECIFIC ACTIVITY (nmol/min/mg) +1 mM gly” value (EPSPS enzyme [6]; line pMON30123 extract, No gly: 4.0) was 0 nmol/min/mg, the “SPECIFIC ACTIVITY (nmol/min/mg) +1 mM gly” value (EPSPS enzyme [6]; line pMON30130 extract, No gly: 6.2) was 0 nmol/min/mg and the “SPECIFIC ACTIVITY (nmol/min/mg) +1 mM gly” value (EPSPS enzyme [6]; line pMON38798 extract, No gly: 17.2) was 14.7 nmol/min/mg. The “SPECIFIC ACTIVITY (nmol/min/mg) +1 mM gly” value (EPSPS enzyme [6]; line pMON45204 extract, No gly: 339.9) was 371.8 nmol/min/mg, the “glyphosate selection level tolerated by generated tobacco lines” value ([7]; in vitro selection, Table 5 lines) was 1 mM and the “No. of shoots Gly 50 uM(+)” value ([7]; pMON38766 (T7), 6 Spec/strep (+) shoots) was 0. The “No. of shoots Gly 50 uM(+)” value ([7]; pMON38766 (Wild), 1 Spec/strep (+) shoot) was 0, the “No. of shoots Gly 50 uM(+)” value ([7]; pMON38773 (Wild), 9 Spec/strep (+) shoots) was 5 and the “No. of shoots positive at 1 mM glyphosate” value ([7]; pMON38773 (Wild), number in parentheses) was 1. The “No. of shoots Gly 50 uM(+)” value ([7]; pMON38793, 8 Spec/strep (+) shoots) was 0, the “No. of shoots Gly 50 uM(+)” value ([7]; pMON38796, 4 Spec/strep (+) shoots) was 0 and the “No. of shoots Gly 50 uM(+)” value ([7]; pMON38797 (Wild), 2 Spec/strep (+) shoots) was 0. The “No. of shoots Gly 50 uM(+)” value ([7]; pMON38798, 6 Spec/strep (+) shoots) was 6, the “No. of shoots Gly 50 uM(+)” value ([7]; pMON45201, 9 Spec/strep (+) shoots) was 3 and the “% Explant Regeneration” value ([8]; line 38773-6, glyphosate 50 μM) was 100%. The “Number Regenerating 3 Weeks” value [8, 16] was 5, the “Number Regenerating 6 Weeks” value [8, 16] was 8 and the “% Explant Regeneration” value ([8]; line 38773-6, glyphosate 75 μM) was 100%. The “Number Regenerating 3 Weeks” value [8, 17] was 14, the “Number Regenerating 6 Weeks” value [8, 17] was 18 and the “% Explant Regeneration” value ([8]; line 38773-6, glyphosate 100 μM) was 88%. The “Number Regenerating 3 Weeks” value [8, 18] was 12, the “Number Regenerating 6 Weeks” value [8, 18] was 15 and the “% Explant Regeneration” value ([8]; line 38773-6, glyphosate 150 μM) was 89%. For the same compound, the “Number Regenerating 3 Weeks” value [8, 19] was 10, the “Number Regenerating 6 Weeks” value [8, 19] was 16 and the “% Explant Regeneration” value ([8]; line 38773-6, glyphosate 200 μM) was 86%. For the same compound, the “Number Regenerating 3 Weeks” value [8, 20] was 8, the “Number Regenerating 6 Weeks” value [8, 20] was 15 and the “glyphosate level tolerated in vitro” value ([8]; tobacco expressing EPSPS in plastids (pMON38773), shoot regeneration) was “at least 200 μM”. The “% Explant Regeneration” value ([9]; glyphosate 50 μM) was 0%, the “Number Regenerating 3 Weeks” value ([9]; glyphosate 50 μM) was 0 and the “Number Regenerating 6 Weeks” value ([9]; glyphosate 50 μM) was 0. For the same compound, the “% Explant Regeneration” value ([9]; glyphosate 75 μM) was 0%, the “Number Regenerating 3 Weeks” value ([9]; glyphosate 75 μM) was 0 and the “Number Regenerating 6 Weeks” value ([9]; glyphosate 75 μM) was 0. For the same compound, the “% Explant Regeneration” value ([9]; glyphosate 100 μM) was 0%, the “Number Regenerating 3 Weeks” value ([9]; glyphosate 100 μM) was 0 and the “Number Regenerating 6 Weeks” value ([9]; glyphosate 100 μM) was 0. The “% Explant Regeneration” value ([9]; glyphosate 150 μM) was 0%, the “Number Regenerating 3 Weeks” value ([9]; glyphosate 150 μM) was 0 and the “Number Regenerating 6 Weeks” value ([9]; glyphosate 150 μM) was 0. The “% Explant Regeneration” value ([9]; glyphosate 200 μM) was 0%, the “Number Regenerating 3 Weeks” value ([9]; glyphosate 200 μM) was 0 and the “Number Regenerating 6 Weeks” value ([9]; glyphosate 200 μM) was 0.
